The source of these data is patent US20090246519A1 (priority 2008, published 2009).

One experiment has as its system Strains in all clusters. It counts as cell-based.
Experiment [1] deals with Cluster 1 strains 1A, 13B, 30B. The experiment is classed as cell-based, Rhodotorula mucilaginosa. The conditions noted are these: highest level of tellurite tolerated by strains when grown on LB-Marine plates.
The subject of experiment [2] is Cluster 2 strains 28A, 6A. The experiment is classed as cell-based, Bacillus sp. Particulars: highest level of tellurite tolerated by strains when grown on LB-Marine plates.
The next experiment relates to Cluster 3 strain 14B. The experiment is classed as cell-based, Virgibacillus halodenitrificans.

For the compound `O=[Se](=O)(O)O` [selenate], the “Resistance of strains to oxyanion” value with Strains in all clusters is “resistant”.

Take `O=[Te](=O)(O)O` [tellurate]: the “Resistance of strains to oxyanion” value in the experiment with Strains in all clusters is “resistant”.

As to arsenate, in the experiment with Strains in all clusters, the “Resistance of strains to oxyanion” value is given as “resistant”.

For the compound sodium tellurite [TeO3^2−], the “Maximum [TeO3^2−]” value is 600 µg/mL in experiment [1]; 300 µg/mL in experiment [2]; 75 to 150 µg/mL with Cluster 3 strain 14B (highest level of tellurite tolerated by strains when grown on LB-Marine plates, cluster 3). Further, the “Growth of strain 14B in the presence of tellurite” value in the experiment with Cluster 3 strain 14B (150 μg Na2TeO3 ml^−1, on plates and in liquid cultures) is “grows poorly”.
